pIC50: −log10 of the molar value.
Test system: 299254-011-R-J1-PDC complex spheroid viability
Test: Anticancer human tumor 299254-011-R-J1-PDC patient-derived melanoma cell line growth inhibition [POLQ]
Conditions: for pIC50: curve of first compound; for viability, T/C: stronger effect = lower value; active means viability on the fitted dose curve at most 10% of control; inactive means the rest
Outline: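 Complex spheroid viability model combining PDC tumour cells with endothelial (HUVEC) and MSC stromal cells. Novobiocin, ART-558 or RP6685 were tested singly and in combination with standard and investigational anticancer drugs. Each was titrated in half-log steps from near clinical Cmax, or from 10 microM where Cmax was unknown.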

[1] = second compound 0.0316 µM, first compound 0.0316 µM
[2] = second compound 0.0316 µM, first compound 0.1 µM
[3] = second compound 0.1 µM, first compound 0.0316 µM
[4] = second compound 0.1 µM, first compound 0.1 µM
[5] = second compound 0.316 µM, first compound 0.0316 µM
[6] = second compound 0.316 µM, first compound 0.1 µM
[7] = second compound 1 µM, first compound 0.0316 µM
[8] = second compound 1 µM, first compound 0.1 µM
[9] = second compound 3.16 µM, first compound 0.0316 µM
[10] = second compound 3.16 µM, first compound 0.1 µM
[11] = second compound 10 µM, first compound 0.0316 µM
[12] = second compound 10 µM, first compound 0.1 µM
[13] = second compound 0.0316 µM, first compound 0.316 µM
[14] = second compound 0.0316 µM, first compound 1 µM
[15] = second compound 0.0316 µM, first compound 3.16 µM
[16] = second compound 0.0316 µM, first compound 10 µM
[17] = second compound 0.1 µM, first compound 0.316 µM
[18] = second compound 0.1 µM, first compound 1 µM
[19] = second compound 0.1 µM, first compound 3.16 µM
[20] = second compound 0.1 µM, first compound 10 µM
[21] = second compound 0.316 µM, first compound 0.316 µM
[22] = second compound 0.316 µM, first compound 1 µM
[23] = second compound 0.316 µM, first compound 3.16 µM
[24] = second compound 0.316 µM, first compound 10 µM
[25] = second compound 1 µM, first compound 0.316 µM
[26] = second compound 1 µM, first compound 1 µM
[27] = second compound 1 µM, first compound 3.16 µM
[28] = second compound 1 µM, first compound 10 µM
[29] = second compound 3.16 µM, first compound 0.316 µM
[30] = second compound 3.16 µM, first compound 1 µM
[31] = second compound 3.16 µM, first compound 3.16 µM
[32] = second compound 3.16 µM, first compound 10 µM
[33] = second compound 10 µM, first compound 0.316 µM
[34] = second compound 10 µM, first compound 1 µM
[35] = second compound 10 µM, first compound 3.16 µM
[36] = second compound 10 µM, first compound 10 µM
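Further: spheroids exposed to drugs for one week before measurement.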
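Wherever viability, T/C is given: percent viability relative to DMSO vehicle control taken as 100%.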

CC[C@@]1(O)C(=O)OCc2c1cc1n(c2=O)Cc2cc3c(CN(C)C)c(O)ccc3nc2-1 + Nc1ccc(C#CCN(C(=O)Cc2ncc(C(F)(F)F)cc2C(F)(F)F)c2ccc(F)cc2)nn1
< 7.00: pIC50 (second compound 0.0316 µM) | pIC50 (second compound 0.1 µM) | pIC50 (second compound 0.316 µM) | pIC50 (second compound 1 µM) | pIC50 (second compound 3.16 µM) | pIC50 (second compound 10 µM)
inactive: viability, T/C (second compound 0.0316 µM, first compound 0.000316 µM) 133% | viability, T/C (second compound 0.0316 µM, first compound 0.001 µM) 112% | viability, T/C (second compound 0.0316 µM, first compound 0.00316 µM) 108% | viability, T/C (second compound 0.0316 µM, first compound 0.01 µM) 101% | viability, T/C [1] 88.5% | viability, T/C [2] 77.8% | viability, T/C (second compound 0.1 µM, first compound 0.000316 µM) 111% | viability, T/C (second compound 0.1 µM, first compound 0.001 µM) 107% | viability, T/C (second compound 0.1 µM, first compound 0.00316 µM) 105% | viability, T/C (second compound 0.1 µM, first compound 0.01 µM) 94.7% | viability, T/C [3] 94.8% | viability, T/C [4] 84.6% | viability, T/C (second compound 0.316 µM, first compound 0.000316 µM) 106% | viability, T/C (second compound 0.316 µM, first compound 0.001 µM) 102% | viability, T/C (second compound 0.316 µM, first compound 0.00316 µM) 86.7% | viability, T/C (second compound 0.316 µM, first compound 0.01 µM) 103% | viability, T/C [5] 112% | viability, T/C [6] 92.9% | viability, T/C (second compound 1 µM, first compound 0.000316 µM) 99.6% | viability, T/C (second compound 1 µM, first compound 0.001 µM) 106% | viability, T/C (second compound 1 µM, first compound 0.00316 µM) 107% | viability, T/C (second compound 1 µM, first compound 0.01 µM) 111% | viability, T/C [7] 109% | viability, T/C [8] 96% | viability, T/C (second compound 3.16 µM, first compound 0.000316 µM) 94.2% | viability, T/C (second compound 3.16 µM, first compound 0.001 µM) 112% | viability, T/C (second compound 3.16 µM, first compound 0.00316 µM) 95% | viability, T/C (second compound 3.16 µM, first compound 0.01 µM) 96.9% | viability, T/C [9] 92.2% | viability, T/C [10] 96.6% | viability, T/C (second compound 10 µM, first compound 0.000316 µM) 102% | viability, T/C (second compound 10 µM, first compound 0.001 µM) 103% | viability, T/C (second compound 10 µM, first compound 0.00316 µM) 95% | viability, T/C (second compound 10 µM, first compound 0.01 µM) 94.2% | viability, T/C [11] 99.6% | viability, T/C [12] 68.5%

O=c1[nH]cc(F)c(=O)[nH]1 + COC1C(OC(N)=O)C(O)C(Oc2ccc3c(O)c(NC(=O)c4ccc(O)c(CC=C(C)C)c4)c(=O)oc3c2C)OC1(C)C
< 5.00: pIC50 (second compound 0.0316 µM) | pIC50 (second compound 0.1 µM) | pIC50 (second compound 0.316 µM) | pIC50 (second compound 1 µM) | pIC50 (second compound 3.16 µM) | pIC50 (second compound 10 µM)
inactive: viability, T/C [1] 109% | viability, T/C [2] 108% | viability, T/C [13] 122% | viability, T/C [14] 99.6% | viability, T/C [15] 94.3% | viability, T/C [16] 66.8% | viability, T/C [3] 110% | viability, T/C [4] 110% | viability, T/C [17] 114% | viability, T/C [18] 113% | viability, T/C [19] 93.7% | viability, T/C [20] 76.3% | viability, T/C [5] 109% | viability, T/C [6] 102% | viability, T/C [21] 116% | viability, T/C [22] 101% | viability, T/C [23] 91.8% | viability, T/C [24] 79.1% | viability, T/C [7] 111% | viability, T/C [8] 115% | viability, T/C [25] 92.8% | viability, T/C [26] 110% | viability, T/C [27] 101% | viability, T/C [28] 87.7% | viability, T/C [9] 110% | viability, T/C [10] 117% | viability, T/C [29] 128% | viability, T/C [30] 112% | viability, T/C [31] 91.3% | viability, T/C [32] 68.8% | viability, T/C [11] 130% | viability, T/C [12] 131% | viability, T/C [33] 96.2% | viability, T/C [34] 109% | viability, T/C [35] 89.9% | viability, T/C [36] 78.3%

CC1COCCN1c1cc(C2(S(C)(=N)=O)CC2)nc(-c2ccnc3[nH]ccc23)n1 (stereo unspecified) + Nc1ccc(C#CCN(C(=O)Cc2ncc(C(F)(F)F)cc2C(F)(F)F)c2ccc(F)cc2)nn1
5.25: pIC50 (second compound 1 µM)
5.26: pIC50 (second compound 0.316 µM)
inactive: viability, T/C [1] 123% | viability, T/C [2] 89.2% | viability, T/C [13] 110% | viability, T/C [14] 84.3% | viability, T/C [15] 63.9% | viability, T/C [16] 47% | viability, T/C [3] 117% | viability, T/C [4] 117% | viability, T/C [17] 100% | viability, T/C [18] 83.8% | viability, T/C [19] 56.3% | viability, T/C [20] 40.3% | viability, T/C [5] 107% | viability, T/C [6] 110% | viability, T/C [21] 87.3% | viability, T/C [22] 89.2% | viability, T/C [23] 63% | viability, T/C [24] 34.9% | viability, T/C [7] 105% | viability, T/C [8] 111% | viability, T/C [25] 94.4% | viability, T/C [26] 94.8% | viability, T/C [27] 59.1% | viability, T/C [28] 39.8% | viability, T/C [9] 99% | viability, T/C [10] 91.8% | viability, T/C [29] 102% | viability, T/C [30] 82.1% | viability, T/C [31] 53.2% | viability, T/C [32] 35.5% | viability, T/C [11] 91.5% | viability, T/C [12] 99.2% | viability, T/C [33] 84.8% | viability, T/C [34] 76% | viability, T/C [35] 46.7% | viability, T/C [36] 37.1%
5.08: pIC50 (second compound 0.0316 µM)
5.29: pIC50 (second compound 0.1 µM)
5.43: pIC50 (second compound 3.16 µM)
5.54: pIC50 (second compound 10 µM)

Reference: PubChem BioAssay AID1963849 (Molecular Pharmacology Branch, DTP, NCI, 2024)
